These results are taken from patent US7019000B1, “Method of treating a disease condition caused or exacerbated by an HPV” (Institute of Molecular & Cell Biology, priority 1998, dated 2006).

Test [1] has as its target T1, HPV-16-E6 (recombinant GST-E6 protein) (Human papillomavirus type 16, UniProt P03126).
T1 construct: The full length HPV16 E6 gene was amplified via polymerase chain reaction and cloned in the vector pGeX4T2; made in house; host or cells: E. coli strain AB1899
Description: biochemical. In kind it is biochemical. From the text:
Where the chelated metal is zinc, zinc release can be measured as an increase in the fluorescence of the zinc-selective fluorophore TSQ (N-(6-methoxy-8-quinolyl)-p-toluenesulfonamide) (18) in the presence of the protein and the active compound (TSQ assay).
In such an assay, the increase in fluorescence measured can be described as a percentage of the increase in fluorescence observed for a positive control compound which provides 100% zinc release. A suitable positive control compound is H2O2. Preferred compounds which may be useful in the present invention are those which release at least 30% of the chelated zinc as measured by the TSQ assay. Particularly preferred compounds for use in the present invention are those which release at least 40% of the chelated zinc, more preferably at least 50%.
In earlier studies, reduced glutathione (GSH) was required to elute recombinant glutathione sulfhydryl transferase E6 (recombinant (GST-E6)) protein during the purification process. However, the reducing activity of the GSH sulfhydryl groups protected GST-E6 protein from the chemical attack by agents, such as the disulphide based organic compounds of Formula (I) and (II). […] Individual assays were done in the presence of 9 μg GST-E6 protein, corresponding to a concentration of 1 μM GST-E6 protein and 2 μM bound zinc, assuming the presence of two Zn ions per protein.
Release of zinc from HPV-16-E6 was monitored by the change in fluorescence of the zinc-selective fluorophore TSQ (N-6-methoxy-8-quinolyl)-p-toluenesulfonamide), (Molecular Probes, Eugene, Oreg.) by modification of published procedures (25, 26, 27). In a total reaction volume of 200 μl, 9 μg (1 μM) recombinant GST-E6 protein (corresponding to a concentration of 1 μM), bound to glutathione-sepharose beads, were incubated with 10 μM of each compound or 0.6% (170 mM) H2O2 in TSQ-assay buffer (10 mM sodium phosphate buffer pH7.0, 10% glycerol) for 2 hours at room temperature (200 μl total volume in 96-well plates). Immediately after addition of 100 μM TSQ, the increase in fluorescence was measured on a SLT Fluostar (355 nm excitation filter and 460 nm emission filter, Tecan, Salzburg).
Values given are % values of Zinc release. The relative fluorescence units (RFU) were normalized to the amount of zinc released by H2O2 (regarded as 100%). The concentration of compound used was 10 μM for C27–C35, 13 μM for C37–C83, H2O2 was used at 0.3% for C27–C35 and 0.2% for C37–C83.

In test [2] the test system is PARP cleavage in HeLa cells. As to the kind of experiment: Western blot detection of PARP cleavage, HeLa. In kind it is cell-based, human. The following applies: 100 μM, one day. On the procedure:
10^6 cells were plated on 10 cm petri-dishes with 10 ml medium and after attachment overnight, treated with 100 μM C16 or 0.5% DMSO for one day. At the time of cell harvest most C16-treated cells were still attached to the plate. Cells were harvested using a rubber policeman and lysed in 10 mM Hepes buffer, pH 7.2, 150 mM NaCl, 0.2% Nonidet-P40 (NP40) and 1 mM PMSF, followed by centrifugation. 20 μg of protein was loaded onto a 12% SDS-polyacrylamide gel, transferred to a nitrocellulose membrane and the membrane blocked with 5% nonfat dry milk in 20 mM Tris-Cl, pH 7.6, 150 mM NaCl, 0.05% Tween-20 overnight at 4° C. The membrane was then probed with primary antibodies against p53 (Santa Cruz Biotechnology, Santa Cruz, Calif.), β-actin (Sigma, St. Louis, Mo.) or PARP (C210, Centre de Research du Chul, Quebec, Canada) and followed by incubation with horseradish peroxidase-conjugated secondary antibody (Pierce, Rockford, Ill.). Finally, the blot was treated with an enhanced chemiluminescent detection substrate (SuperSignal, Pierce) and autoradiographed.
Increases in P53 expression are known to be associated with programmed cell death (apoptosis) (29), therefore PARP cleavage, a hallmark of apoptosis was examined in C16 treated cells.

The test system of test [3] is HPV containing cell lines as HeLa, SiHa and Caski, compared to HPV-negative cell lines MCF7, HEPG2, (HaCat, HT3, 444). As to the kind of experiment: Cell viability (WST1 assay), panel of HPV-positive and HPV-negative cell lines. The class given is cell-based, human. On the procedure:
Zinc finger proteins are required for maintenance of cell viability. Preferably, the compounds for use in the present invention are specific in their ability to affect the viability of MPV containing cells, with little or no cytotoxic effects on the cellular functioning of healthy non-MPV containing cells. The viability of MPV-infected cells (and non infected cells) in the presence of compounds of Formulae (I) or (II) can be measured by incubating with the tetrazolium salt WST1 (Roche Molecular Biochemicals, Manneheim Germany) and measuring the absorption readings thereof (WST1 assay).
(§1) All cell lines were obtained from the American Type Culture Collection (Manassas, Va.) unless otherwise noted. SiHa (human cervical epithelial tumor line, HPV16-positive), CaSki (human cervical epithelial tumor line, HPV16-positive), HaCat (immortalized human skin epithelial cell line, HPV-negative), HeLa (human cervical epithelial tumor line, HPV18-positive), 444 (hybrid of HeLa and fibroblast, HPV18-positive) obtained from Eric Stanbridge (Universitv of California, Irvine), MCF7 (human mammary epithelial tumor cell line, HPV-negative), HT3 (human cervical epithelial tumor cell line, HPV-negative) was obtained from the German Cancer Research Institute/DKFZ-Heidelberg, and HepG2, (human liver epithelial tumor cell line, HPV-negative), were grown in Dulbecco's modified Eagle medium (DMEM) supplemented with 10% fetal calf serum, 100 U penicillin and 1000 U streptomycin. Cells were allowed to attach to the surface of microwell dishes overnight and subsequently, incubated with medium containing the zinc ejecting compounds at the concentrations (10–100 μM). Viability of the cells was scored by measuring the absorption of the tetrazolium salt WST1 (Roche Molecular Biochemicals, Mannheim, Germany) in an Elisa-plate reader (Tecan, Salzburg, Austria) at a wavelength of 450 nm and a reference wavelength of 630 nm.
A total of 10 000 cells per well were plated on 24 well plates, after attachment overnight, they were treated 3 times in 3 days with C16 at 10 μM and 50 μM. The activity of C16 was also compared with that of C4 (azodicarbonamide) which causes ejection of zinc from HIV-1 NCp7 and is currently used in clinical trials for the treatment of AIDS.
In general terms: Tetrazolium dyes change colour on reduction, which living cells bring about.

For the next test, the system named is SiHa, Caski, HeLa. Description: Cell viability (WST1 assay), cervical epithelial tumour cells. In kind it is cell-based, human. The following applies: 50 μM, treated 3 times in 3 days.
Text: as §1, with “nm. […]” for “nm.”

The test system of test [4] is HT3, MCF7, HaCat and HeLa-fibroblast hybrid cell line 444. As to the kind of experiment: Cell viability (WST1 assay), HPV-negative cells and 444 hybrid. The class given is cell-based, human. Particulars: treated 3 times in 3 days.
Text: as §1, with “nm. […]” for “nm.”

Structures are written as SMILES.

T1 sequence (P03126 whole entry): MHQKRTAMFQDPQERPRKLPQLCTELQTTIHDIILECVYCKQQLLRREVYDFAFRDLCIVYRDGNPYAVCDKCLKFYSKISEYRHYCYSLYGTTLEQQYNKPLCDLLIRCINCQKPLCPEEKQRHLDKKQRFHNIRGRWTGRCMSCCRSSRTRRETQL

As for `C1CN(SSN2CCOCC2)CCO1` [Compound C16], in test [1] (GSH present at 5–10 mM), the “zinc release in original TSQ assays” value is given as “capable of releasing zinc”. Moreover, in test [1] (read-out: TSQ % (% values of Zinc release)), the activation at 10 µM was found to be 63.2%. Further, the PARP cleavage entry in test [2] was “PARP cleavage was observed”. Further, in test [3], the “effective concentration in cell viability assays” value is 50 µM. The WST1 result in test [3] (50 μM in cell culture) was “+”. Also, the WST1-spec result in test [3] (50 μM, HPV containing vs HPV-negative cell lines) is recorded as “+”. For the same compound, the “inhibition of cell viability” value with SiHa, Caski, HeLa was “substantial and specific inhibition of cell viability”. Besides, the “effect on cell viability” value in test [4] is given as “little or no effect”.
